Entries after “also recorded” stand apart in the source; their conditions may differ.
Key:
[1] = tested on: LeCCD1a; assay: In vivo enzyme assay in β-carotene-producing E. coli expressing LeCCD1a; type: cell-based, Solanum lycopersicum; conditions: 100 μM inhibitor, 16 hours; FIG. 4
Source text: In vivo enzyme assays in E. coli—The genes of interest (supplemental Table S1) were cloned into the vector pET30c (Novagen) fused directly to the initial ATG codon with no tag, or into pGEX-4T such that the gene was fused to an N-terminal GST tag. All genes were full length except AtCCD7, which had the chloroplast signal sequence removed (supplemental methods). […] Therefore, this construct was used in subsequent assays. The plasmids were transferred to the E. coli expression strain BL21(DE3), harbouring pAC-BETA (38), and therefore producing β-carotene.
For each inhibitor assay, 2.5 ml LB media with the appropriate antibiotics (25 μg ml^−1 chloramphenicol and 50 μg ml^−1 kanamycin or 100 μg ml^−1 ampicillin) and 2.5 μM IPTG, was prepared. Inhibitors (0.1 M in 100% ethanol) were added to the media to a final concentration of 100 μM. The media was then inoculated with 0.25 ml of overnight culture (grown at 37° C. with the appropriate antibiotics) and incubated with shaking (200 rpm) at 28° C. for 16 hours. One ml of culture was harvested by microcentrifugation and resuspended thoroughly in 1 ml ethanol containing 0.2% Triton X-100. After vortexing, the extract was incubated at room temperature in the dark for 3 hours, again vortexed and then spun in a microcentrifuge for 5 min at 13000 rpm. The supernatant was removed and the O.D.453-O.D.550 was measured. The amount of β-carotene was calculated using a standard curve generated from a dilution series of β-carotene (Sigma) in ethanol with 0.2% Triton X-100; the absolute levels of β-carotene are shown in FIG. 8. The relative inhibition was calculated by the equation: (Ci−Cc)/(C1−Cc)×100, where Ci is the carotenoid level with inhibitor and CCD present, Cc is the level with CCD but without the inhibitor and C1 is the level in a strain where lacZ is expressed instead of the CCD, and no inhibitor is present. Thus the increase in β-carotene due to inhibition of the CCD […] was expressed relative to the maximum possible β-carotene content when CCD is absent (C1−Cc).
In vivo activity of inhibitors applied to E. coli strains expressing CCDs—Coloured E. coli strains that produce various carotenoids can be constructed by expression of enzymes for carotenoid synthesis (26). Upon co-expression of the appropriate CCD, the bacteria lose their colour due to cleavage of the carotenoids to colourless products (4,6,27). This technique was employed here to further explore the specificity of inhibitors, and to test their activity in vivo. The level of carotenoid in each CCD-expressing strain was compared to the level of the carotenoid in a control strain producing β-carotene but lacking any CCD gene. The difference in the carotenoid levels gave a measure of CCD activity, and inhibition of this activity was measured by addition of inhibitors to the growing medium.
The inhibitors were tested against four β-carotene-producing E. coli strains (supplemental Table S1). Three of the strains expressed highly divergent CCDs that cleave at the 9,10 position: AtCCD7 from Arabidopsis (21) and MmBCO2 from mouse (6) which both cleave at a single site (9,10 or 9′,10′ but not both), and the tomato enzyme LeCCD1a (44) which cleaves at both sites in the same substrate molecule (9,10/9′,10′ activity). The fourth strain expressed another mouse CCD, MmBCO1 (47), which cleaves centrally at 15,15′. […]

[2] = biological target: LeCCD1a (Solanum lycopersicum, UniProt Q6E4P5); assay: In vitro LeCCD1a enzyme assay (recombinant cell-free extract, colourimetric, apo-8′-carotenal substrate); type: biochemical, tomato (Solanum lycopersicum); conditions: for inhibition at 100 µM: read-out: LeCCD1a (9,10/9′,10′) Inhibition @ 100 μM (%)
Sequence of LeCCD1a (Solanum lycopersicum, UniProt Q6E4P5) (Q6E4P5 1-545): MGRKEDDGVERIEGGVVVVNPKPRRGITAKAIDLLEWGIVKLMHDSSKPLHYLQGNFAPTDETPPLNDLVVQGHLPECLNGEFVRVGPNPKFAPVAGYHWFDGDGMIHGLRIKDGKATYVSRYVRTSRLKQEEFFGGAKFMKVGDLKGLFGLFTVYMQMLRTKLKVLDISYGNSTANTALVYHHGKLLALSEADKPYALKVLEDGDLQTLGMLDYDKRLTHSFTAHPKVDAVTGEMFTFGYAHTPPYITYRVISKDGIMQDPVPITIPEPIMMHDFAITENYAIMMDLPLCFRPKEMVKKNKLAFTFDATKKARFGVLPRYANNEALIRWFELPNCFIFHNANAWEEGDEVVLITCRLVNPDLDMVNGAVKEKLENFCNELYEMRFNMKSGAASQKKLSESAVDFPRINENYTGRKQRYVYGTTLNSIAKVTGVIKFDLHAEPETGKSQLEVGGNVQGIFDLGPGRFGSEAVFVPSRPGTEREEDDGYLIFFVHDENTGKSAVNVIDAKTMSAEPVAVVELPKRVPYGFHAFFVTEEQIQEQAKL
Description: In vitro LeCCD1a enzyme assay—We over-expressed LeCCD1a in E. coli, as a GST-fusion protein (supplemental methods). The in vitro assay of LeCCD1a was based on reported methods (37), and was carried out in a 200 μl total volume in a 96-well microtitre plate, with the signal detected at 485 nm. To prepare substrate solution for each assay, 5 μl of 4% (w/v in ethanol) apo-8′-carotenal (Sigma) was mixed with 25 μl of 4% (w/v in ethanol) β-octylglucoside (Sigma), the ethanol was then evaporated under nitrogen, and the residue dissolved in 150 μl PBS buffer containing 10 mM sodium ascorbate by incubation at 20° C. for 30 min. 50 μl of cell-free extract containing recombinant LeCCD1a was added, and the reactions monitored over 30 min at 20° C.
For the production of cell-free extracts of LeCCD1a and LeNCED1, cultures were grown to an OD of 0.6 at 37° C., then isopropyl β-D-1-thiogalactopyranoside (IPTG) was added to 0.2 mM and the cultures grown overnight at 20° C. The cells (200 ml cultures) were harvested by centrifugation (5000 rpm, 10 min) and the pellet re-suspended in 4 ml PBS, 0.1% Triton-X 100. Lysozyme was added to a final concentration of 25 μg ml^−1 and the solution incubated at room temperature for 15 min before sonication (3×30 s at 18Ω) on ice. The lysate was then centrifuged (13000 rpm, 15 min, 4° C.) and the supernatant used for the assay.
Specificity of inhibition in vitro for tomato genes LeNCED1 and LeCCD1a—In order to screen the inhibitors against enzymes which cleave carotenoids at the 9,10 position, we used the recombinant tomato LeCCD1a protein (44), because this type of enzyme can be studied using an in vitro colourimetric assay with β-apo-8′-carotenal as substrate (37). To establish the specificity of the inhibitors, they were also tested against the tomato LeNCED1 recombinant protein which cleaves 9-cis carotenoids at the 11,12 position (45). For this enzyme, the cleavage reaction was monitored by C18 reverse phase HPLC, using 9′-cis-neoxanthin as substrate.

Compound	relative inhibition of LeCCD1a in E. coli (in words) [1]	inhibition of LeCCD1 in vitro (in words) [2]	inhibition at 100 µM [2] [%]	LeCCD1a (9,10/9′,10′) Inhibition @ 100 μM (%) ([2]; 100 μM inhibitor, E. coli cell extract with recombinant CCD)
COc1ccc(C(=O)N(O)Cc2ccc(F)cc2)cc1 [Compound F2, N-(4-fluorobenzyl)-4-methoxybenzoyl hydroxamic acid]	good activity against LeCCD1a; also recorded: high inhibitory activity	high levels of inhibition of LeCCD1	> 95	
COc1ccc(C(=O)N(O)Cc2ccccc2)cc1 [Compound F1, N-benzyl-4-methoxybenzoyl hydroxamic acid]	good activity against LeCCD1a; also recorded: high inhibitory activity	high levels of inhibition of LeCCD1	> 95	
COc1ccc(C(=O)N(O)Cc2ccccc2)cc1OC [Compound F3, N-benzyl-3,4-dimethoxybenzoyl hydroxamic acid]	virtually none			50

Reference: US9210928B2, “Plant development control composition” (Syngenta Crop Protection, LLC, priority 2008, dated 2015)
